These results are taken from patent US7547698B2, “Bicyclic heterocyclic derivatives and their use as inhibitors of stearoyl-coadesaturase (SCD)” (Xenon Pharmaceuticals Inc., priority 2004, dated 2009).

One may read the melting point as the temperature, or range, at which the solid turns liquid.

As for `O=C(Nc1ccc(F)cc1)c1cn2nc(N3CCN(C(=O)c4ccccc4C(F)(F)F)CC3)ccc2n1` [Example 1.9, 6-[4-(2-TRIFLUOROMETHYLBENZOYL)PIPERAZIN-1-YL]-IMIDAZO[1,2-B]PYRIDAZINE-2-CARBOXYLIC ACID (4-FLUOROPHENYL)AMIDE], the melting point was 115 to 117 °C.
Compound `O=C(Nc1ccc(Cl)cn1)c1cn2nc(N3CCN(C(=O)c4ccccc4C(F)(F)F)CC3)ccc2n1` [Example 1.7, 6-[4-(2-TRIFLUOROMETHYLBENZOYL)PIPERAZIN-1-YL]IMIDAZO[1,2-B]PYRIDAZINE-2-CARBOXYLIC ACID (5-CHLOROPYRIDIN-2-YL)AMIDE] displayed a melting point of 265 to 268 °C.
`CCCCNC(=O)c1cn2nc(N3CCN(C(=O)c4ccccc4C(F)(F)F)CC3)ccc2n1` [Example 1.6, 6-[4-(2-TRIFLUOROMETHYLBENZOYL)PIPERAZIN-1-YL]IMIDAZO[1,2-B]PYRIDAZINE-2-CARBOXYLIC ACID BUTYLAMIDE] gave a melting point of 187 to 189 °C.
The value for `O=C(NCc1ccc(F)cc1)c1cn2nc(N3CCN(C(=O)c4ccccc4C(F)(F)F)CC3)ccc2n1` [Example 1.8, 6-[4-(2-TRIFLUOROMETHYLBENZOYL)PIPERAZIN-1-YL]IMIDAZO[1,2-B]PYRIDAZINE-2-CARBOXYLIC ACID 4-FLUOROBENZYLAMIDE] was 205 to 207 °C.
Then `CCCCCNC(=O)c1cn2nc(N3CCN(C(=O)c4ccccc4C(F)(F)F)CC3)ccc2n1`, with 179 to 180 °C.
